Among the data in patent US7005432B2, “Substituted imidazol-pyridazine derivatives” (Hoffman-La Roche Inc., priority 2002, dated 2006) are IC50 values, retold here.

Counter-ions that a name gives are not always drawn.

For orientation: IC50 means the concentration needed to halve the response being measured. Lower therefore signals inhibition by little substance.

T1 sequence (Q00960 27-1482, other chains not shown): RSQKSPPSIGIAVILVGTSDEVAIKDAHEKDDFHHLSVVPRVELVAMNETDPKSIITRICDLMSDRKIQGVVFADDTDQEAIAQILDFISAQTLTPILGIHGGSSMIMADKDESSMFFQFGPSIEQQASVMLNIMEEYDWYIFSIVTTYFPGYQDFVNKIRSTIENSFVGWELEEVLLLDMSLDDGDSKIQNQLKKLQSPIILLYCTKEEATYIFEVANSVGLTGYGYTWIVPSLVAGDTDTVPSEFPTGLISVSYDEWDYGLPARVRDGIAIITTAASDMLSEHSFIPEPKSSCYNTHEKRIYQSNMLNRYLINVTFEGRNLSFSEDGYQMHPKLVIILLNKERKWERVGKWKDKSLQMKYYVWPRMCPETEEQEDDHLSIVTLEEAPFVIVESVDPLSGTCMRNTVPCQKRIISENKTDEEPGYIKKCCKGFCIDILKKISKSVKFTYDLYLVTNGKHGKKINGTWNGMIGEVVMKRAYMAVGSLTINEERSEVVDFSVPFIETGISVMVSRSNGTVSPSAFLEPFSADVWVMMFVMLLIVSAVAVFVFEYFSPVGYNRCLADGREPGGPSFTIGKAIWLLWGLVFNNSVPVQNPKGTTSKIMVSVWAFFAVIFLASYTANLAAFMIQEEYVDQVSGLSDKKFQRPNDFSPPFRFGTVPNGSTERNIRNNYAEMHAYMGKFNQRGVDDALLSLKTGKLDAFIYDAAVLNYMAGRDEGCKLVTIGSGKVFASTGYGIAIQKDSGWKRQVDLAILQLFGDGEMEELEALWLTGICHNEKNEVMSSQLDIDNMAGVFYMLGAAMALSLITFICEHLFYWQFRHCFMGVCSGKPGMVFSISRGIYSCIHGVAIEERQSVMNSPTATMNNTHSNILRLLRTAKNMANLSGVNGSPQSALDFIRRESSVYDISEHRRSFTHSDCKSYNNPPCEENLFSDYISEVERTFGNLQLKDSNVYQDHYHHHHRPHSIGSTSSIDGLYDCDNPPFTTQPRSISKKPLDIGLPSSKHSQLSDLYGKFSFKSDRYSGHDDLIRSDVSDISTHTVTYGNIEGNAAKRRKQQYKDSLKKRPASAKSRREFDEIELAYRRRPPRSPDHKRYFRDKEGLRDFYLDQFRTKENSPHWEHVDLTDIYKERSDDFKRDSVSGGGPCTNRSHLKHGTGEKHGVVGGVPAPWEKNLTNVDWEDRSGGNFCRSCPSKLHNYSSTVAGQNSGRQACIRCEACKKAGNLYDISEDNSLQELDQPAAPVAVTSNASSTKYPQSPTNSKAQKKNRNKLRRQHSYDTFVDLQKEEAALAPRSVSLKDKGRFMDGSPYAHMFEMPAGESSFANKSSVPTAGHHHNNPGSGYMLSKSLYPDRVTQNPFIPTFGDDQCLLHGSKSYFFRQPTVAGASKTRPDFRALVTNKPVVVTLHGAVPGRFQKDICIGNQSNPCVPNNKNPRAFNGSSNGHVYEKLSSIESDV

The experiment addresses T1, NMDA-receptor subtype 2B (Rattus norvegicus, UniProt P35439+Q00960).
T1 construct: Membranes were prepared by homogenization of the whole brain minus cerebellum and medulla oblongata; from tissue; host or cells: rat whole brain minus cerebellum and medulla oblongata (membranes)
Put plainly: 3H-Ro 25-6981 binding (displacement) on rat brain membranes. The following applies: displacement of 5 nM 3H-Ro 25-6981, rat whole brain (minus cerebellum and medulla oblongata) membranes, 2 hours at 4° C., Tris-HCl 50 mM pH 7.4. The procedure: ^3H-Ro 25-6981 binding (Ro 25-6981 is [R-(R*,S*)]-α-(4-hydroxy-phenyl)-β-methyl-4-(phenyl-methyl)-1-piperidine propanol)
Male Füllinsdorf albino rats weighing between 150-200 g were used. Membranes were prepared by homogenization of the whole brain minus cerebellum and medulla oblongata with a Polytron (10.000 rpm, 30 seconds), in 25 volumes of a cold Tris-HCl 50 mM, EDTA 10 mM, pH 7.1 buffer. The homogenate was centrifuged at 48,000 g for 10 minutes at 4° C. The pellet was resuspended using the Polytron in the same volume of buffer and the homogenate was incubated at 37° C. for 10 minutes. After centrifugation the pellet was homogenized in the same buffer and frozen at −80° C. for at least 16 hours but not more than 10 days. For the binding assay the homogenate was thawed at 37° C., centrifuged and the pellet was washed three times as above in a Tris-HCl 5 mM, pH 7.4 cold buffer. The final pellet was resuspended in the same buffer and used at a final concentration of […].
^3H-Ro 25-6981 binding experiments were performed using a Tris-HCl 50 mM, pH 7.4 buffer. For displacement experiments 5 nM of ^3H-Ro 25-6981 were used and non specific binding was measured using 10 mM of tetrahydroisoquinoline and usually it accounts for 10% of the total. The incubation time was 2 hours at 4° C. and the assay was stopped by filtration on Whatmann GF/B glass fiber filters (Unifilter-96, Packard, Zürich, Switzerland). The filters were washed 5 times with cold buffer. The radioactivity on the filter was counted on a Packard Top-coullt microplate scintillation counter after addition of […] of microscint 40 (Canberra Packard S.A., Zürich, Switzerland).
The effects of compounds were measured using a minimum of 8 concentrations and repeated at least once. The pooled normalized values were analyzed using a non-linear regression calculation program which provide IC50 with their relative upper and lower 95% confidence limits.
In turn, `Cc1nccn1Cc1cc(-c2ccc3sccc3c2)cnn1` [Example 15, 5-Benzo[b]thiophen-5-yl-3-(2-methyl-imidazol-1-yl-methyl)-pyridazine hydrochloride] gave a half-maximal inhibitory concentration (IC50) of 16 nM.
To `Cc1nccn1Cc1cc(-c2cccc(C3CC3)c2)cnn1` [Example 14, 5-(3-Cyclopropyl-phenyl)-3-(2-methyl-imidazol-1-yl-methyl)-pyridazine hydrochloride] belongs 20 nM; to `Cc1nccn1Cc1cc(-c2cc(F)cc(C(C)(F)F)c2)cnn1` [Example 31, 5-[3-(1,1-Difluoro-ethyl)-5-fluoro-phenyl]-3-(2-methyl-imidazol-1-yl-methyl)-pyridazine hydrochloride], 31 nM.
To `Cc1nccn1Cc1cc(-c2ccc(Cl)c(Cl)c2)cnn1` [Example 13, 5-(3,4-Dichloro-phenyl)-3-(2-methyl-imidazol-1-yl-methyl)-pyridazine hydrochloride] belongs 11 nM.
To `Cc1nccn1Cc1cc(C2=Cc3ccccc3CC2)cnn1` [Example 68, 5-(3,4-Dihydro-naphthalen-2-yl)-3-(2-methyl-imidazol-1-yl-methyl)-pyridazine hydrochloride] belongs 27 nM; to `Cc1nccn1Cc1cc(-c2ccc(F)c3ccccc23)cnn1` [Example 50, 5-(4-Fluoro-naphthalen-1-yl)-3-(2-methyl-imidazol-1-yl-methyl)-pyridazine hydrochloride], 29 nM.
In turn, `Cc1nccn1Cc1cc(-c2ccc(F)c(C(C)(F)F)c2)cnn1` [Example 11, 5-[3-(1,1-Difluoro-ethyl)-4-fluoro-phenyl]-3-(2-methyl-imidazol-1-yl-methyl)-pyridazine hydrochloride] had an IC50 of 29 nM.
To `Cc1nccn1Cc1cc(-c2ccc(F)c(C(F)F)c2)cnn1` [Example 6, 5-(3-Difluoromethyl-4-fluoro-phenyl)-3-(2-methyl-imidazol-1-yl-methyl)-pyridazine hydrochloride] belongs 17 nM.
The compound `Cc1nccn1Cc1cc(-c2cccc(C(F)(F)F)c2F)cnn1` [Example 58, 5-(2-Fluoro-3-trifluoromethyl-phenyl)-3-(2-methyl-imidazol-1-yl-methyl)-pyridazine hydrochloride] had an IC50 of 37 nM.
On to `COc1cc(-c2cnnc(Cn3ccnc3C)c2)c2ccccc2c1` [Example 49, 5-(3-Methoxy-naphthalen-1-yl)-3-(2-methyl-imidazol-1-yl-methyl)-pyridazine hydrochloride], for which the IC50 was 34 nM.
To `COc1ccc2cc(-c3cnnc(Cn4ccnc4C)c3)ccc2c1` [Example 27, 5-(6-Methoxy-naphthalen-2-yl)-3-(2-methyl-imidazol-1-yl-methyl)-pyridazine hydrochloride] belongs 44 nM; to `Cc1nccn1Cc1cc(-c2ccc(Cl)c(C(F)F)c2)cnn1` [Example 26, 5-(4-Chloro-3-difluoromethyl-phenyl)-3-(2-methyl-imidazol-1-yl-methyl)-pyridazine hydrochloride], 12 nM.
To `Cc1nccn1Cc1cc(-c2ccc3c4c(cccc24)CC3)cnn1` [Example 45, 5-Acenaphthen-5-yl-3-(2-methyl-imidazol-1-yl-methyl)-pyridazine hydrochloride] belongs 57 nM.
To `Cc1nccn1Cc1cc(-c2ccc(Cl)c(C(F)(F)F)c2)cnn1` [Example 4, 5-(4-Chloro-3-trifluoromethyl-phenyl)-3-(2-methyl-imidazol-1-yl-methyl)-pyridazine hydrochloride] belongs 27 nM; to `Cc1cc(-c2cnnc(Cn3ccnc3C)c2)ccc1F` [Example 16, 5-(4-Fluoro-3-methyl-phenyl)-3-(2-methyl-imidazol-1-yl-methyl)-pyridazine hydrochloride], 10 nM.
For `Cc1nccn1Cc1cc(-c2ccc3ccccc3c2)cnn1` [Example 12, 3-(2-Methyl-imidazol-1-ylmethyl)-5-naphthalen-2-yl-pyridazine-hydrochloride], the IC50 worked out at 22 nM.
To “5-(3-Difluoromethyl-4-fluoro-phenyl)-3-(2-ethyl-imidazol-1-ylethyl)-pyridazine hydrochloride [Example 52]” belongs 26 nM; to `Cc1nccn1Cc1cc(-c2cccc3ccccc23)cnn1` [Example 35, 3-(2-Methyl-imidazol-1-yl-methyl)-5-naphthalen-1-yl-pyridazine hydrochloride], 25 nM; to `Cc1nccn1Cc1cc(-c2ccc(F)c(C(F)(F)F)c2)cnn1` [Example 3, 5-(4-Fluoro-3-trifluoromethyl-phenyl)-3-(2-methyl-imidazol-1-yl-methyl)-pyridazine hydrochloride], 38 nM.
To `Cc1nccn1Cc1cc(-c2ccc(Cl)c(C(C)(F)F)c2)cnn1` [Example 39, 5-[4-Chloro-3-(1,1-difluoro-ethyl)-phenyl]-3-(2-methyl-imidazol-1-yl-methyl)-pyridazine hydrochloride] belongs 24 nM; to `Cc1nccn1Cc1cc(-c2cccc(C(C)C)c2)cnn1` [Example 42, 5-(3-Isopropyl-phenyl)-3-(2-methyl-imidazol-1-yl-methyl)-pyridazine hydrochloride], 48 nM.
As for `Cc1nccn1Cc1cc(-c2cc(F)cc(C(F)F)c2)cnn1` [Example 24, 5-(3-Difluoromethyl-5-fluoro-phenyl)-3-(2-methyl-imidazol-1-yl-methyl)-pyridazine hydrochloride], the half-inhibitory concentration (IC50) was found to be 47 nM.
Regarding `Cc1nccn1Cc1cc(-c2cccc(C(F)F)c2)cnn1` [Example 25, 5-(3-Difluoromethyl-phenyl)-3-(2-methyl-imidazol-1-yl-methyl)-pyridazine hydrochloride], the half-inhibitory concentration (IC50) was 58 nM.
To `Cc1cc(-c2cnnc(Cn3ccnc3C)c2)ccc1Cl` [Example 30, 5-(4-Chloro-3-methyl-phenyl)-3-(2-methyl-imidazol-1-yl-methyl)-pyridazine hydrochloride] belongs 7 nM; to `Cc1nccn1Cc1cc(-c2cccc(C(C)(F)F)c2)cnn1` [Example 9, 5-[3-(1,1-Difluoro-ethyl)-phenyl]-3-(2-methyl-imidazol-1-yl-methyl)-pyridazine hydrochloride], 34 nM; to `COc1cc(-c2cnnc(Cn3ccnc3C)c2)cc(C(F)(F)F)c1` [Example 38, 5-(3-Methoxy-5-trifluoromethyl-phenyl)-3-(2-methyl-imidazol-1-yl-methyl)-pyridazine hydrochloride], 54 nM.
To `Cc1nccn1Cc1cc(-c2cccc(C(C)(C)C)c2)cnn1` [Example 34, 5-(3-tert-Butyl-phenyl)-3-(2-methyl-imidazol-1-yl-methyl)-pyridazine hydrochloride] belongs 68 nM; to `COc1cc(-c2cnnc(Cn3ccnc3C)c2)ccc1Cl` [Example 41, 5-(4-Chloro-3-methoxy-phenyl)-3-(2-methyl-imidazol-1-yl-methyl)-pyridazine hydrochloride], 41 nM; to `COc1ccc2ccc(-c3cnnc(Cn4ccnc4C)c3)cc2c1` [Example 48, 5-(7-Methoxy-naphthalen-2-yl)-3-(2-methyl-imidazol-1-yl-methyl)-pyridazine hydrochloride], 35 nM.
To `COc1cccc2c(-c3cnnc(Cn4ccnc4C)c3)cccc12` [Example 36, 5-(5-Methoxy-naphthalen-1-yl)-3-(2-methyl-imidazol-1-yl-methyl)-pyridazine hydrochloride] belongs 77 nM.
For `Cc1nccn1Cc1cc(-c2ccc(F)c(Cl)c2)cnn1` [Example 1, 5-(3-Chloro-4-fluoro-phenyl)-3-(2-methyl-imidazol-1-yl-methyl)-pyridazine Hydrochloride], the concentration for half-maximal inhibition (IC50) came to 21 nM.
